According to US20250049802A1, “COMBINATION THERAPIES AND USES FOR TREATING CANCER” (Pfizer Inc., priority 2021, published 2025):

How the values were obtained:
[1] = test system: ST941 PDX breast cancer model; test: In vivo efficacy (tumor growth inhibition) in the HR+/HER2− ST941 PDX model; design: species or system female athymic nude mice
Protocol: The HR+/HER2− PDX studies were performed at START (San Antonio, TX) using female athymic nude mice (Foxn1nu/Foxn1nu, JAX Laboratories). Mice received 8.5 μg/mL β estradiol drinking water during study. The live donor mice were established by implanting cryopreserved tumor fragments (around 70 mg). Once ready, the donor tumor fragments were subsequently transplanted into secondary recipient mice for a study expansion.
Palbocidib was dosed twice daily (7 hr apart). PF-06821497 and vehicle was dosed once daily. Fulvestrant was administered twice in the first week, then weekly afterwards. TGI was assessed on Day 36 post first dose.
Tumor volume and body weights were measured twice a week after dosing initiation. Tumor volume i was calculated using the [(Length×Width×Width)/2)] formula. TGI was calculated as 100*(1−ΔT/ΔC). The ΔC (ΔT) was obtained by subtracting the mean tumor burden in the vehicle (treated) group on the first day of treatment (Day 0) from the mean tumor burden in vehicle (treated) group on the assessment day. All mice received treatment continuously until the day of efficacy assessment. Statistical analysis was performed in GraphPad Prism with an unpaired t test, followed by Mann-Whitney test.
The ST941 tumor bearing mice were randomized into 4 groups when the mean tumor volume reached around 177 mm3 and subsequently treated.

[2] = test system: HCC1428 breast cancer model; test: In vivo efficacy (tumor growth inhibition) in the HR+/HER2− HCC1428 breast cancer model; design: species or system female NSG mice
Protocol: HCC1428 cells (ATCC, CRL-2327) were maintained in PRMI-1640 medium, plus 10% FBS until ready for implant. HCC1428 model was established by serial in vivo propagation. To establish the HCC1428 donor mice, tumor cells (5×10^6 cell/mouse with 50% Cultrex® Basement Membrane Matrix) were subcutaneously implanted in female NSG mice with estrogen supplementation (SC implanted, in 0.36 mg 90-day release, Innovative Research of America, cat #NE-121). Once reaching a range of 700 to 800 mm3, donor tumors were subsequently transplanted into secondary recipient mice for a study expansion. In this study, the HCC1428 model was established by implanting passage 4 tumor fragments into recipient mice. […] TGI was assessed on Day 36 post first dose.
Tumor volume and body weights were measured twice a week after dosing initiation. Tumor volume i was calculated using the [(Length×Width×Width)/2)] formula. TGI was calculated as 100*(1−ΔT/ΔC). […]

With `COc1cc(C)[nH]c(=O)c1CN1CCc2c(Cl)cc([C@H](OC)C3COC3)c(Cl)c2C1=O` [PF-06821497, 5,8-dichloro-2-[(4-methoxy-6-methyl-2-oxo-1,2-dihydro-pyridin-3-yl)methyl]-7-[(R)-methoxy(oxetan-3-yl)methyl]-3,4-dihydroisoquinolin-1(2H)-one] the “% TGI (D18)” value ([1]; TGI = 100*(1−ΔT/ΔC), doses and schedules per Table 2) was 44.6%, the “antitumor efficacy vs vehicle” value ([1]; p<0.05 vs vehicle) was “significant antitumor efficacy” and the “% TGI (D36)” value ([2]; Day 36 post first dose, TGI = 100*(1−ΔT/ΔC), doses and schedules per Table 1) was 55%. For the same compound, the “antitumor efficacy vs vehicle” value ([2]; p<0.05 vs vehicle) was “significant antitumor efficacy”.
